According to PubChem BioAssay AID248 (DTP/NCI, 2004):
Where “and” joins values, the source holds several entries; their conditions need not be identical. Equal entries are not always repeated. Toxic doses and inconclusive results are not listed. No stated cut-off is given here; in the data, active means T/C of 150% or more; inactive means T/C below 125%.

System: L1210 leukemia ip in BDF1 mice, survival T/C
Test: NCI In Vivo Anticancer Drug Screen. Data for tumor model L1210 Leukemia (intraperitoneal) in B6D2F1 (BDF1) mice
Conditions: endpoint: mean survival time, higher = longer survival
Summary of the method: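 Value reflects the ratio of survival in compound-treated mice to survival in vehicle-treated controls, with both groups carrying the same transplanted tumor.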

[1] = dose: 100.0 mg/kg/injection, schedule: Q01DX009 (ip), vehicle: Klucel (hydroxypropylcellulose) (HPC)
[2] = dose: 100.0 mg/kg/injection, schedule: Q04DX003 (ip), vehicle: other
[3] = dose: 200.0 mg/kg/injection, schedule: Q01DX009 (ip), vehicle: Klucel (hydroxypropylcellulose) (HPC)
[4] = dose: 200.0 mg/kg/injection, schedule: Q04DX003 (ip), vehicle: other
[5] = dose: 400.0 mg/kg/injection, schedule: Q01DX009 (ip), vehicle: Klucel (hydroxypropylcellulose) (HPC)
[6] = dose: 400.0 mg/kg/injection, schedule: Q04DX003 (ip), vehicle: other
[7] = dose: 200.0 mg/kg/injection, schedule: Q04DX003 (ip), vehicle: saline with Tween-80
[8] = dose: 100.0 mg/kg/injection, schedule: Q01DX001 (ip), vehicle: saline
[9] = dose: 100.0 mg/kg/injection, schedule: Q01DX009 (ip), vehicle: saline with Tween-80
[10] = dose: 200.0 mg/kg/injection, schedule: Q01DX001 (ip), vehicle: saline
[11] = dose: 200.0 mg/kg/injection, schedule: Q01DX009 (ip), vehicle: saline with Tween-80
[12] = dose: 400.0 mg/kg/injection, schedule: Q01DX001 (ip), vehicle: saline
[13] = dose: 400.0 mg/kg/injection, schedule: Q01DX009 (ip), vehicle: saline with Tween-80
[14] = dose: 100.0 mg/kg/injection, schedule: Q04DX003 (ip), vehicle: saline
[15] = dose: 200.0 mg/kg/injection, schedule: Q04DX003 (ip), vehicle: saline
[16] = dose: 400.0 mg/kg/injection, schedule: Q04DX003 (ip), vehicle: saline
[17] = dose: 100.0 mg/kg/injection, schedule: Q01DX009 (ip), vehicle: saline
[18] = dose: 200.0 mg/kg/injection, schedule: Q01DX009 (ip), vehicle: saline
[19] = dose: 100.0 mg/kg/injection, schedule: Q04DX003 (ip), vehicle: Klucel (hydroxypropylcellulose) (HPC)
[20] = dose: 200.0 mg/kg/injection, schedule: Q04DX003 (ip), vehicle: Klucel (hydroxypropylcellulose) (HPC)
[21] = dose: 400.0 mg/kg/injection, schedule: Q04DX003 (ip), vehicle: Klucel (hydroxypropylcellulose) (HPC)
[22] = dose: 100.0 mg/kg/injection, schedule: Q04DX002 (ip), vehicle: saline with Tween-80
[23] = dose: 200.0 mg/kg/injection, schedule: Q04DX002 (ip), vehicle: saline with Tween-80
[24] = dose: 400.0 mg/kg/injection, schedule: Q04DX002 (ip), vehicle: saline with Tween-80

Measured: T/C

CCN(CC)S(=O)(=O)c1ccc(OC)c(N)c1
inactive: [1] 98 % of control | [2] 96 % of control | [3] 96 % of control | [4] 104 % of control | [5] 104 % of control | [6] 100 % of control

O=C1c2ccccc2C(=O)N1OCc1cc(Cl)sc1Cl
inactive: dose: 100.0 mg/kg/injection, schedule: Q04DX003 (ip), vehicle: saline with Tween-80 97 % of control | [7] 96 % of control | dose: 400.0 mg/kg/injection, schedule: Q04DX003 (ip), vehicle: saline with Tween-80 104 % of control

O=C1C(=O)C(c2ccccc2)(c2ccccc2)c2cc(-c3ccccc3)c(-c3ccccc3)cc21
inactive: [7] 93 % of control

c1ccc(CSC2=NCCS2)cc1
inactive: [8] 101 % of control | [9] 98 % of control | [10] 106 % of control | [11] 98 % of control | [12] 106 % of control | [13] 104 % of control

CC(C(=O)c1cccs1)=C(C(F)(F)F)C(F)(F)F
inactive: [2] 100 % of control | [4] 94 % of control | [6] 98 % of control

c1ccc(CC(Cc2ccccc2)=[N+]2C3CCCC2CC3)cc1
inactive: [14] 92 % of control | [15] 101 % of control | [16] 111 % of control

O=C=Nc1ccc(CCc2ccc(N=C=O)cc2)cc1
inactive: [17] 88 % of control | [14] 93 % of control | [18] 87 % of control | [15] 102 % of control | [16] 106 % of control

COC(=O)c1c[nH]c2ccccc2c1=O
inactive: [1] 106 % of control | [19] 96 % of control | [3] 95 % of control | [20] 107 % of control | [5] 108 % of control | [21] 91 % of control

CC1(C)CC(=O)N/C1=C\C1NC(=O)CC1(C)C (stereo unspecified)
inactive: [9] 96 % of control | [11] 104 % of control | [13] 102 % of control

CC1([N+](=O)[O-])COP(=O)(N2CC2)OC1 (stereo unspecified)
inactive: dose: 62.5 mg/kg/injection, schedule: Q01DX Z (ip), vehicle: carboxymethylcellulose (CMC) 87 % of control | dose: 125.0 mg/kg/injection, schedule: Q01DX Z (ip), vehicle: carboxymethylcellulose (CMC) 90 % of control

O=C(Nc1ccc(C(=O)O)cc1)Nc1ccccc1C(F)(F)F
inactive: dose: 100.0 mg/kg/injection, schedule: Q01DX009 (ip), vehicle: gum acacia 100 % of control | dose: 200.0 mg/kg/injection, schedule: Q01DX009 (ip), vehicle: gum acacia 102 % of control | dose: 400.0 mg/kg/injection, schedule: Q01DX009 (ip), vehicle: gum acacia 96 % of control

COC(=O)N/N=C/c1c[nH]c2ccccc12
inactive: [1] 94 % of control | [3] 106 % of control

Oc1ccc2ccccc2c1Cc1cccc2ccccc12
inactive: [9] 90 % of control | [11] 95 % of control

CC(=O)CC(=O)Nc1ccc(Cc2ccc(Br)cc2)cc1
inactive: [8] 96 % of control | [10] 95 % of control | [12] 91 % of control

CCC(CCNC(=O)c1ccccc1)(CCNC(=O)c1ccccc1)[N+](=O)[O-]
inactive: [8] 95 % of control | [10] 106 % of control | [12] 92 % of control

O=C(c1ccccc1)c1cn(C2CCCCC2)c(-c2ccccc2)c1NC1CCCCC1
inactive: [9] 93 % of control | [11] 93 % of control | [13] 102 % of control

CCCCCCC#CC(=O)OCCCC
inactive: [22] 93 % of control | [23] 93 % of control | [24] 90 % of control

Cc1ccc(CNc2cc(C)ccn2)cc1
inactive: dose: 50.0 mg/kg/injection, schedule: Q01DX009 (ip), vehicle: saline with Tween-80 96 % of control | [9] 101 % of control | [11] 101 % of control

O=C(O)C(F)(F)F
inactive: dose: 50.0 mg/kg/injection, schedule: Q01DX001 (ip), vehicle: water 112 % of control | dose: 50.0 mg/kg/injection, schedule: Q01DX001 (iv), vehicle: water 116 % of control | [8] 102 % of control | dose: 100.0 mg/kg/injection, schedule: Q01DX001 (iv), vehicle: water 114 % of control | [17] 100 % of control | dose: 100.0 mg/kg/injection, schedule: Q04DX002 (ip), vehicle: saline 96 % of control and 98 % of control | [14] 95 % of control | [10] 104 % of control | [18] 95 % of control and 96 % of control | dose: 200.0 mg/kg/injection, schedule: Q04DX002 (ip), vehicle: saline 94 % of control and 89 % of control | [15] 93 % of control | [12] 98 % of control | dose: 400.0 mg/kg/injection, schedule: Q01DX009 (ip), vehicle: saline 98 % of control and 90 % of control | dose: 400.0 mg/kg/injection, schedule: Q04DX002 (ip), vehicle: saline 93 % of control and 94 % of control | [16] 91 % of control

CCCCCCCCCC(=O)N/N=C/c1cccc([N+](=O)[O-])c1
inactive: [9] 97 % of control | [11] 91 % of control | [13] 100 % of control

C/C(=C\COc1ccccc1)CCC1OC1(C)C (stereo unspecified)
inactive: [22] 100 % of control | [23] 93 % of control | [24] 104 % of control

NCCC(c1ccccc1)c1ccccc1
inactive: dose: 75.0 mg/kg/injection, schedule: Q01DX001 (ip), vehicle: carboxymethylcellulose (CMC) 104 % of control

CCOC(=O)c1ccc(NC(=S)NC(=O)c2cccc3ccccc23)cc1
inactive: dose: 100.0 mg/kg/injection, schedule: Q04DX002 (ip), vehicle: other 91 % of control and 92 % of control | dose: 200.0 mg/kg/injection, schedule: Q04DX002 (ip), vehicle: other 97 % of control and 91 % of control | dose: 400.0 mg/kg/injection, schedule: Q04DX002 (ip), vehicle: other 102 % of control and 91 % of control

COc1ccc2c(C)cc(C)nc2n1
inactive: dose: 75.0 mg/kg/injection, schedule: Q04DX002 (ip), vehicle: saline 104 % of control | dose: 150.0 mg/kg/injection, schedule: Q04DX002 (ip), vehicle: saline 112 % of control | dose: 300.0 mg/kg/injection, schedule: Q04DX002 (ip), vehicle: saline 108 % of control

Nc1cc(N)cc(Cc2ccccc2)c1
inactive: dose: 50.0 mg/kg/injection, schedule: Q01DX009 (ip), vehicle: Klucel (hydroxypropylcellulose) (HPC) 100 % of control | [1] 95 % of control | [19] 100 % of control | [3] 103 % of control | [20] 102 % of control | [5] 92 % of control | [21] 98 % of control

O=C1CCSc2c1ccc1ccccc21
inactive: [8] 87 % of control
